Experimental data from patent publication US11129845B2, “Compositions and methods for the delivery of nucleic acids” (CASE WESTERN RESERVE UNIVERSITY, priority 2014, dated 2021).

How the values were obtained:
[1] = Zeta-potential of siRNA-lipid complexes (Malvern Zetasizer); assay type: physicochemical
Protocol: (§1) The cationic lipid carriers are dissolved in ethanol at a stock concentration of 2.5 mM, while all siRNA is reconstituted in nuclease-free water at a 0.25 μg/μL (18.8 μM) concentration. Nanoparticles are formulated by mixing the carriers with siRNA for a period of 30 min in RNase-free phosphate buffer saline (PBS) at pre-specified N/P ratios (N=number of protonable amines in lipid, P=number of phosphate groups in the siRNA). In preparing the lipoplexes, proper dilutions were made such that the volume ratio of ethanol:water was kept constant at 1:20. Minimizing the amount of ethanol is important because it is effective in dissolving lipids, thus inhibiting particle formation. The diameters (as determined by dynamic light scattering) and zeta potentials of all nanoparticles were analyzed using a Malvern Zetasizer instrument at pH=7.4. siRNA encapsulation efficiency was calculated using a RiboGreen fluorescence-based assay from Invitrogen, designed specifically for detection of free RNA at […] wavelengths of 480 and 520 nm, respectively. Nanoparticles were created with all carriers in the library so that final siRNA concentrations were 1.6 μg/mL. A linear standard curve was utilized to calculate the encapsulation efficiencies from signal intensities measured by a SpectraMax microplate reader (Molecular Devices).

HT29-Luc cells = assay: MTT cytotoxicity in HT29-Luc cells; assay type: cell-based, human
[2] = Agarose gel retardation (siRNA loading); assay type: physicochemical
Protocol: The ability of ECO to complex and condense siRNA was assessed by gel electrophoresis. […] The gel was submerged in 0.5×Tris/Borate/EDTA (TBE) buffer and run at 100 V for 25 minutes. Free siRNA was run as the control. SiRNA bands were visualized using an AlphaImager ultraviolet imaging system (Biosciences). […] Following incubation, samples were loaded onto a 1% agarose gel containing ethidium bromide and run in the same manner as described. […] At each intermittent time point, aliquots were taken and stored at −80° C. After the final aliquot was taken at 24 hours, samples were incubated for 30 minutes with heparin at a heparin/siRNA (w/w) ratio of 5 to release the complexed siRNA cargo and each sample was loaded on the 1% agarose gel and run as described above. Free siRNA was also incubated in 50% serum for 0.5, 1, 6, or 24 hours and stored and run on the gel in a similar manner.

[3] = Nanoparticle diameter and polydispersity by dynamic light scattering (Malvern Zetasizer); assay type: physicochemical; details: for Nanoparticle diameter as measured by dynamic light scattering: siRNA-lipid complexes
Protocol: as §1

luciferase reporter = assay: Luciferase reporter silencing in HT29-Luc cells; assay type: cell-based, human; details: for Luciferase expression: 100 nM siRNA
Protocol: Gene silencing efficiency was investigated in the HT29-Luc cell line by analyzing the expression of a luciferase reporter after anti-Luc siRNA therapy. To perform this study, cancer cells were seeded in 12 well plates at a density of 20,000 cells per well. Transfections were conducted in fresh serum-free media with 100 nM of siRNA when the cells were 25% confluent. The cells continued to grow in normal growth media for an additional 48 and 72 h, at which point they were rinsed twice with PBS and lysed for protein collection. The lysis buffer was a component of a Promega Luciferase Assay kit designed for measuring luciferase expression in the cell lysate. Equally important, the lysis buffer was compatible with the BCA protein assay so that we were able to normalize the luciferase expression in our samples with total protein content. For this silencing study, all synthesized carriers were evaluated at N/P ratios of 8, 10, 12, 14, 16, 18, and 20 to determine the best transfection formulation. Relative luciferase expression was determined for each trial using a SpectraMax luminometer upon the addition of a light-inducing luciferin substrate to the collected protein.
The RNAi capabilities of each carrier were investigated by analyzing the silencing of a luciferase (Luc) reporter in HT29 cancer cells after anti-Luc siRNA therapy. To perform this study, we seeded HT29-Luc cells in 12 well plates at a density of 20,000 cells per well. When 25% confluency, the cells were incubated with fresh serum-free transfection media containing nanoparticles at a dose of 100 nM siRNA. After 4 hours, the media was replaced with fresh complete growth media, so that the cells could continue to grow for an additional 48-72 hours, at which point they were lysed for protein collection. The lysis buffer was compatible with the BCA protein assay so that we could normalize luciferase expression in our samples. Negative controls included cells that were treated with 1) particles encapsulating non-specific siRNA, 2) naked anti-Luc siRNA, or 3) plain serum-free media. Luciferase expression was determined using a Spectra Max luminometer upon the addition of a light-inducing substrate to the collected protein. A similar knockdown experiment was also conducted in non-cancerous CHO cells expressing a GFP reporter. Flow cytometry was utilized to assess the silencing efficiency of the ECO and ECL delivery systems in this cell line. Cytotoxicity of the carriers 48 hours post-transfection was also investigated in both cell lines using an MTT colorimetric assay. […] These RNAi silencing levels surpassed those obtained with a Lipofectamine RNAiMax commercial transfection agent.

For CCCCCCCC/C=C\CCCCCCCC(=O)N[C@@H](CS)C(=O)NCCNC(=O)CCN(CCN)CCC(=O)NCCNC(=O)[C@H](CS)NC(=O)CCCCCCC/C=C\CCCCCCCC [ECO, (1-aminoethyl)iminobis[N-(oleicylcysteinyl-1-amino-ethyl)propionamide]], the “Zeta-potential of siRNA-lipid complexes” value ([1]; pH = 7.4, N/P = 2) was −32.20 ± 0.90 mV, the “Zeta-potential of siRNA-lipid complexes” value ([1]; pH = 7.4, N/P = 5) was −16.84 ± 1.58 mV and the “Zeta-potential of siRNA-lipid complexes” value ([1]; pH = 7.4, N/P = 8) was 28.82 ± 1.03 mV. For the same compound, the “Zeta-potential of siRNA-lipid complexes” value ([1]; pH = 7.4, N/P = 10) was 25.68 ± 2.02 mV, the “Zeta-potential of siRNA-lipid complexes” value ([1]; pH = 7.4, N/P = 15) was 25.19 ± 2.32 mV and the “cell viability (MTT)” value (HT29-Luc cells; HT29, N/P=18) was 87.3±2.72%. The “cell viability (MTT)” value (HT29-Luc cells; HT29, N/P=20) was 51.5±5.87%, the “N/P ratio at which complexed siRNA was completely prevented from migrating through the gel” value [2] was no less than 14 and the “N/P ratio at which no siRNA signal was observed in the loading well” value [2] was no less than 18. For the same compound, the “Polydispersity of siRNA-lipid complexes” value ([3]; N/P = 2) was 0.245, the “Polydispersity of siRNA-lipid complexes” value ([3]; N/P = 5) was 0.200 and the “Polydispersity of siRNA-lipid complexes” value ([3]; N/P = 8) was 0.157. The “Polydispersity of siRNA-lipid complexes” value ([3]; N/P = 10) was 0.136, the “Polydispersity of siRNA-lipid complexes” value ([3]; N/P = 15) was 0.005 and the “Nanoparticle diameter as measured by dynamic light scattering” value (“Nanoparticle diameter as measured” below) ([3]; N/P = 2) was 468 ± 43 nm. For the same compound, the “Nanoparticle diameter as measured” value ([3]; N/P = 5) was 448 ± 23 nm, the “Nanoparticle diameter as measured” value ([3]; N/P = 8) was 59 ± 11 nm and the “Nanoparticle diameter as measured” value ([3]; N/P = 10) was 78 ± 12 nm. For the same compound, the “Nanoparticle diameter as measured” value ([3]; N/P = 15) was 42 ± 9 nm, the “luciferase knockdown (transfection efficiency)” value (luciferase reporter; HT29, N/P 18, 72 h post-transfection) was 77.5±3.3% and the silencing efficiency (luciferase reporter; HT29-Luc, N/P ratio of 18, over 72 hours) was 80%. The Luciferase expression (luciferase reporter; HT29-Luc, N/P=12, 72 h) was 33.5±3.82% and the Luciferase expression (luciferase reporter; HT29-Luc, N/P=18 (Lipofectamine per manufacturer), 72 h) was 22.7±3.31%.
